Series [1] in a line: Stability in mouse plasma, 2 h at 37° C. (Example 5). It is filed as in vitro ADME. The procedure: (§1) SDC-TRAP-0022 and SDC-TRAP-0028 were incubated in human and mouse plasma for 2 h at 37° C. and assayed for integrity at 0.25, 0.5, 1 and 2 h. The values reported below are the remaining of the parent compound at the end of the 2 h incubation period.
A short description of series [2]: Stability in human plasma, 2 h at 37° C. (Example 5). It is filed as in vitro ADME. The procedure:
as §1

The conditions of series [3]: mouse, plasma, 1 h, 10 µM.
The test system of the next series is Human H3122 NSCLC cells. Put plainly: Cell viability assay (CellTiter-Glo) in H3122 cells (Example 4). As to conditions: NCI-H3122. It counts as cell-based. On the procedure: Human H3122 NSCLC cells were obtained and grown in RPMI in the presence of fetal bovine serum (10%), 2 mM L-glutamine and antibiotics (100 IU/ml penicillin and 100 μg/ml streptomycin, Sigma Aldrich.) Cells were maintained at 37° C., 5% CO2 atmosphere.
Cell viability was measured using the CellTiter-Glo® assay (Promega). In brief, cells were plated in 96-well plates in triplicate at optimal seeding density (determined empirically) and incubated at 37° C., 5% CO2 atmosphere for 24 hr prior to the addition of drug or vehicle (0.3% DMSO) to the culture medium. At the end of the assay, CellTiter-Glo was added to the wells per manufacturer's recommendation, shaken for two minutes and incubated for 10 minutes at room temperature. Luminescence (0.1 sec) was measured with a Victor II microplate reader (Perkin Elmer) and the resulting data were used to calculate cell viability, normalized to vehicle control.
Cells as described above were treated with exemplary SDC-TRAPs and their viability determined as above as well. The following table illustrates the results.
In general terms: Cellular ATP, detected with luciferase, serves as a proxy for viable cell number.

The next series addresses T1, Hsp90α (Homo sapiens, UniProt P07900).
T1 construct: purchased BPS Bioscience 50294
The series is described as follows: Hsp90α binding assay (fluorescence polarization, FITC-labeled geldanamycin; Example 11). As to conditions: read-out: EC50 (Hsp90 binding assay). The procedure:
An Hsp90^α fluorescence assay kit from BPS Bioscience (Cat #50294) containing Hsp90 recombinant enzyme, FITC-labeled geldanamycin, assay buffer and a low binding 384-well plate was used to assay Hsp90^α binding. Dithiothreitol (DTT) (Cat # D0643) and bovine serum albumin (BSA) (Cat # A2153) were obtained from Sigma-Aldrich. Fluorescence polarization was measured using a PHERAstar microplate reader (BMG LABTECH GmbH, Orienberg, Germany.)
The compounds were diluted to 1 mM in DMSO and loaded into a compound dilution plate to make 3-fold dilutions yielding a total of 8 concentrations. […] 5 mL of Hsp90^□ binding solution was prepared having a final concentration of 7 ng/[…]binding^□, 5 nM FITC-labeled geldanamycin, 2 mM DTT and 0.1 mg/mL BSA. 49 μL of binding solution was added to each microplate well, incubated at room temperature for 1 hour, then read using the PHERAstar microplate reader. The high control sample contained no compound plus Hsp90^α; the low control sample contained no compound and no Hsp90^α. […] The IC50 was calculated using GraphPad Prism 4 software.
A general note: Polarisation of emitted light reports the rotation of a fluorescent probe.

Series [4] has as its system human urinary bladder cancer cell line SW780. Put plainly: Cytotoxicity assay (CellTiter-Glo, 72 h), SW780. It is filed as cell-based. As to conditions: SW780, 72 hours, read-out: Cytotoxicity (IC50, nM) SW-780.
Description: (§2) Cytotoxicity of SDC-TRAP molecules was determined in three cancer cell lines. […] 80 μL of CellTiter-Glo was added to each well, followed by room temperature incubation in the dark for 15 minutes. Cell was determined by luminescence. IC50 was calculated using XLfit™ software.
The test system of series [5] is human urinary bladder cancer cell line RT-112. Put plainly: Cytotoxicity assay (CellTiter-Glo, 72 h), RT-112. It is filed as cell-based. The conditions noted are these: RT-112, 72 hours, read-out: Cytotoxicity (IC50, nM) RT-112.
Description: as §2
For series [6], the system named is human breast cancer cell line BT-474. Put plainly: Cytotoxicity assay (CellTiter-Glo, 72 h), BT-474. As to conditions: BT-474, 72 hours, read-out: Cytotoxicity (IC50, nM) BT-474. It is filed as cell-based.
Description: as §2
The test system of series [7] is HER2. Put plainly: HER2 degradation assay with BT-474 cell line (Example 12, FACS). It is filed as cell-based, human.
Series [8] relates to HER2. Put plainly: HER2 degradation in BT-474 cells (Example 3, Methods 1 and 2). It counts as cell-based, human. The method, boiled down: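 BT-474 cells treated 24 h at 37 °C with 10-point 3-fold compound dilutions; HER2 read by in-cell immunofluorescence after paraformaldehyde fixation, signal normalized to DRAQ5 nuclear stain, EC50 from curve fit. Degradation also checked by western blot of cytosolic lysates against tubulin.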

The test system of another series is H 3211 NSLC cells. Put plainly: IC50 of continuous and pulsed exposure (Examples 9 and 10). It counts as cell-based.
Series [9] is described as follows: Mouse plasma stability protocol, up to 1 h (Examples 16-18).
Series [10] in a line: Tissue distribution of ganetespib in mice bearing RERF human NSCLC xenografts. As to conditions: ganetespib 50 mg/kg IV. A general note: A xenograft is tissue or cells of one species grown in another, often human tumour cells in immunodeficient mice.
Excerpt: Tissue distribution of ganetespib in female CD-1 nu/nu mice bearing RERF human NSCLC xenografts
The subject of series [11] is Hsp90 client proteins (EGFR, MET, CDC2), Hsp70, DNA damage markers. Put plainly: Pharmacodynamics in SCLC xenograft tumors. It counts as in vivo.
Series [12] concerns H2AX phosphorylation, HSP70, EGFR, MET. Put plainly: Pharmacodynamics in CRC (HCT-116) xenograft tumors. It counts as in vivo, mouse. The conditions noted are these: for H2AX phosphorylation: 24 hr.
The nature of series [13]: Artificial membrane permeability assay (PAMPA). The conditions noted are these: same protocol, second table.
Series [14] deals with HCT-116 human colorectal xenografts. The series is described as follows: Mouse xenograft efficacy in HCT-116 colon cancer model. The conditions noted are these: mouse, in vivo.
Description: (§3) The cells were maintained in vitro as a monolayer culture in McCoy's 5a Medium. Fetal bovine serum was then be added to the medium. The final concentration of fetal bovine serum was 10%. Cells were cultured at 37° C. and 5% CO2. The tumor cells were routinely sub-cultured twice weekly by trypsin-EDTA treatment. Cells in an exponential growth phase were harvested and counted for tumor inoculation.
(§4) 100 18-22 g, 5-7 week old, female BALB/cA nude mice were inoculated with the HCT 116 cells (2.0×10^6, 1:1 with Matrigel) subcutaneously on the back of each animal (0.1 mL/mouse). When the average tumor volume reached about 150-250 mm^3, 60 of the inoculated mice was selected based on tumor growth and randomly grouped into 6 treatment groups (10 mice per group) according to the following table.
(§5) The administrations were made with 27-gauge IV needle.
(§6) During the treatment period, the implanted tumors were measured by caliper twice per week. The tumors were measured for the maximum width (X) and length (Y) and the tumor volumes (V) were calculated using the formula: V=(X^2Y)/2. The differences in the tumor volume between the control and treatment groups were analyzed for significance using the unpaired two-tailed Student's t-test. P<0.05 was considered to be statistically significant. The animal body weights were also weighed and recorded twice per week.
Series [15] has as its system human SCLC tumor xenografts. Put plainly: Antitumor activity in human SCLC tumor xenografts. It counts as in vivo, mice. As to conditions: SCLC xenografts; day 46.
A further series has as its system SK-OV-3 xenografts. Put plainly: Antitumor activity in SK-OV-3 ovarian cancer xenografts. The conditions noted are these: SDC-TRAP-0063 200 mg/kg group; irinotecan alone and with ganetespib. It is filed as in vivo, female Balb/c nude mice. The procedure:
This model is sensitive to HSP90 inhibition.
However, once the dosing is discontinued all but 200 mg/kg of SDC-TRAP-0063 dose group maintained tumor growth inhibition for a prolonged period of time.

Series [16] deals with HCT-116 human colorectal xenografts. The conditions noted are these: female, BALB/cA nude, mouse, in vivo, iv.
Description: as §3, §4, §5, §6
The mark [17] stands for this setting: SCLC xenograft tumors, 24 hrs after drug exposure.

In general, pEC50 refers to the EC50 on a negative log10 scale, so that one unit is a factor of ten. As usually defined, the IC50 is the point on the concentration scale where inhibition reaches its midpoint.

pEC50, pIC50: −log10 of the molar value. Where “and” joins values, the source holds several entries; their conditions need not be identical. Equal entries are not always repeated. Where two headings read alike, the source gives them in different places. Where only a bound is given, the exact number is not on record here.

On to `CCc1c2c(nc3ccc(OCC(=O)N(C)CCOCCn4ccc5cc(-n6c(O)nnc6-c6cc(C(C)C)c(O)cc6O)ccc54)cc13)-c1cc3c(c(=O)n1C2)COC(=O)C3(O)CC` (stereo not drawn) [SDC-TRAP-0028, 2-((4,11-diethyl-4-hydroxy-3,14-dioxo-3,4,12,14-tetrahydro-1H-pyrano[3′,4′: 6,7]indolizino[1,2-b]quinolin-9-yl)oxy)-N-(2-(2-(5-(3-(2,4-dihydroxy-5-isopropylphenyl)-5-hydroxy-4H-1,2,4-triazol-4-yl)-1H-indol-1-yl)ethoxy)ethyl)-N-methylacetamide], for which the “% Remaining 2 h (37° C.), MO” value in series [1] (mouse, plasma, 2 h, 1 μM) was found to be 53%; in [1] (mouse, plasma, 2 h, 10 μM) it was 47%. The “% Remaining 2 h (37° C.), HU” value is listed as 51% in series [2] (human, plasma, 2 h, 1 μM) and 65% in series [2] (human, plasma, 2 h, 10 μM). Besides, the “% Remaining (1 h)” value in [3] was 40.9%. Besides, in series [3], the “% Remaining (1 h, 37° C.)” value was determined as 41%. The pIC50 with Human H3122 NSCLC cells is 6.04.
As to `CCNC(=O)c1nnc(-c2cc(C(C)C)c(O)cc2O)n1-c1ccc(Oc2ccc(C(=O)N[C@H]3C[C@H](O[C@H]4C[C@](O)(C(=O)CO)Cc5c(O)c6c(c(O)c54)C(=O)c4c(OC)cccc4C6=O)O[C@@H](C)[C@H]3O)cc2)cc1` [SDC-TRAP-0199, 5-(2,4-dihydroxy-5-isopropylphenyl)-N-ethyl-4-(4-(4-(((2S,3 S,4S,6R)-3-hydroxy-2-methyl-6-(((1S,3S)-3,5,12-trihydroxy-3-(2-hydroxyacetyl)-10-methoxy-6,11-dioxo-1,2,3,4,6,11-hexahydrotetracen-1-yl)oxy)tetrahydro-2H-pyran-4-yl)carbamoyl)phenoxy)phenyl)-4H-1,2,4-triazole-3-carboxamide], the pEC50 at Hsp90α was 6.87. The IC50 is 2300 nM in series [4], 29 nM in [5] and 29 nM in series [6]. The compound further had a pIC50 with HER2 [7] (BT-474 cells, overnight) below 5.00.
For `CCc1c2c(nc3ccc(OC(=O)N(C)CCn4ccc5cc(-n6c(O)nnc6-c6cc(C(C)C)c(O)cc6O)ccc54)cc13)-c1cc3c(c(=O)n1C2)COC(=O)C3(O)CC` (stereo not drawn) [SDC-TRAP-0022, 4,11-diethyl-4-hydroxy-3,14-dioxo-3,4,12,14-tetrahydro-1H-pyrano[3′,4′:6,7]indolizino[1,2-b]quinolin-9-yl (2-(5-(3-(2,4-dihydroxy-5-isopropylphenyl)-5-hydroxy-4H-1,2,4-triazol-4-yl)-1H-indol-1-yl)ethyl)(methyl)carbamate], the “% Remaining 2 h (37° C.), MO” value in [1] (mouse plasma, 1 μM) worked out at 32%; in series [1] (mouse plasma, 10 μM), 31%. The pIC50 is below 5.30 in the series with HER2 [8]; below 5.52 in the series on H 3211 NSLC cells (1 h, read-out: IC50, 1h-pulse/71h-compound free, 7.5 × 10^3 cells/well, two replicate columns); below 5.52 in the series with H 3211 NSLC cells (read-out: IC50, 1h-pulse/71h-compound free, 7.5 × 10^3 cells/well, two replicate columns); 6.71 and 6.08 and 6.34 with H 3211 NSLC cells (read-out: IC50, 72h-continuous, 7.5 × 10^3 cells/well, three replicate columns); below 5.30 with HER2 [7]; 6.31 with Human H3122 NSCLC cells. For the same compound, the “% Remaining 2 h (37° C.), HU” value was 29% in series [2] (human plasma, 1 μM) and 30% in [2] (human plasma, 10 μM). The “% Remaining (1 h)” value in series [9] (% Remaining of parent after 1 h incubation in mouse plasma at 37° C. (10 μM)) is reported as 21.0%. In addition, the “% Remaining (1 h, 37° C.)” value in series [9] (mouse plasma, 1 h, 37° C.) was 21%.
Take `CC(C)c1cc(-c2n[nH]c(=O)n2-c2ccc3c(ccn3C)c2)c(O)cc1O` [ganetespib, reference compound]: the plasma concentration result in series [10] (DRD, 24 hr) is reported as “<LLOQ”. The “mean concentration in plasma relative to RBC” value in series [10] (5 min) was “about 10 times”. Further, the “persistence in tumor versus plasma and other tissues” value in [10] (up to 24 hr) is recorded as “persist longer in tumor than in plasma or any other tissues studied”. In series [11] (setting [17]), the “Hsp90 client proteins (EGFR, MET, CDC2) and Hsp70 expression” value was “Hsp90 clients EGFR, MET and CDC2 are diminished”; the “markers for DNA damage (acetyl-histone H3, p53, p-H2AX)” value is “increases p-H2AX but has negligible effects on p53 and histone H3”. Besides, the H2AX phosphorylation result in series [12] (HCT-116 tumors) is on record as “induces H2AX phosphorylation”. Further, in series [12] (HCT-116 tumors, 24 hr exposure), the “HSP70 and Hsp90 client protein (EGFR, MET) expression” value was “induces HSP70 expression and reduces the level of EGFR and MET compared to vehicle”.
As for `CCNC(=O)c1nnc(-c2cc(C(C)C)c(O)cc2O)n1-c1ccc(OC2CCN(c3cnc(C(=O)N[C@H]4C[C@H](O[C@H]5C[C@](O)(C(=O)CO)Cc6c(O)c7c(c(O)c65)C(=O)c5c(OC)cccc5C7=O)O[C@@H](C)[C@H]4O)cn3)CC2)cc1` [SDC-TRAP-0200, 5-(4-(4-(3-(2,4-dihydroxy-5-isopropylphenyl)-5-(ethylcarbamoyl)-4H-1,2,4-triazol-4-yl)phenoxy)piperidin-1-yl)-N-((2S,3S,4S,6R)-3-hydroxy-2-methyl-6-(((1S,3S)-3,5,12-trihydroxy-3-(2-hydroxyacetyl)-10-methoxy-6,11-dioxo-1,2,3,4,6,11-hexahydrotetracen-1-yl)oxy)tetrahydro-2H-pyran-4-yl)pyrazine-2-carboxamide], in series [13], the “Mass Retention” value was 10.6%. Further, the pEC50 on Hsp90α is 6.60. The IC50 in series [4] is 651 nM; in series [5], 16 nM; in series [6], 32 nM. This compound also had a pIC50 with HER2 [7] (BT-474 cells, overnight) below 5.00.
In the case of `CCc1c2c(nc3ccc(OC(=O)N4CCC(N5CCCCC5)CC4)cc13)-c1cc3c(c(=O)n1C2)COC(=O)[C@]3(O)CC` [irinotecan, reference compound], the “antitumor activity in HCT-116 xenografts (FIG. 23)” value in series [14] is reported as “significantly inhibited the growth of HCT-116 human colorectal xenografts”. Besides, in series [11] (SCLC xenograft tumors, 24, 72 and 96 hrs), the “kinetics of acetyl-histone H3 induction” value is “maximal induction of acetyl-histone H3 by 24 hr”. The mice found dead in series [15] is recorded as 1/8. For the same compound, the H2AX phosphorylation entry in series [12] (HCT-116 tumors) is given as “stimulate H2AX phosphorylation at 24 hr”. The “kinetics of H2AX phosphorylation” value in series [12] (HCT-116 xenograft tumors) was “maximally induced at 4 hr and stable at 24 hr”. Besides, in the series with SK-OV-3 xenografts, the “antitumor activity in SK-OV-3 xenografts (FIG. 25)” value is “statistically significant inhibitory impact on the growth of SK-OV-3 xenografts”. For the same compound, the “% Remaining (1 h)” value in series [3] is 32.5%. The “animal death during the treatment” value in series [16] is on record as 20-30%.

The record behind these values is patent publication US10828315B2 (Madrigal Pharmaceuticals, Inc., priority 2013, dated 2020).
